Columns and labels:
ERK1/2 = assay: MAPK activation in ECV304 cells (nuclear phosphorylated ERK1/2 immunoblot); type: cell-based; details: for effect on T4-induced ERK1/2 (MAPK) activation: PD 98059 30 μmol/L or CGP41251 100 nmol/L, 30 minutes before T4
Experimental: ECV304 endothelial cells were cultured in M199 medium with 0.25% hormone-depleted serum 13 for 2 days. […] Nuclear fractions were pre-pared from all samples by the method reported previously (see Li et al., Carcinogenesis 29:62-69 (2008)), the proteins separated by polyacrylamide gel electrophoresis, and transferred to membranes for immunoblotting with antibody to phosphorylated ERK 1/2.

V-79 cells = details: reduced from 3.4; cited from earlier work
[1] = cited from earlier work
FGF2 cDNA = assay: RT-PCR of FGF2 in ECV304 cells; type: cell-based; details: T4 10^−7 mol/L, 6 to 48 hours
Experimental: RNA (1 μg) was subjected to reverse transcription-polymerase chain reaction (RT-PCR) using the Access RT-PCR system (Promega). Total RNA was reverse transcribed into cDNA at 48° C. for 45 minutes, then denatured at 94° C. for 2 minutes. Second-strand synthesis and PCR amplification were performed for 40 cycles with denaturation at 94° C. for 30 s, annealing at 60° C. for 60 s, and extension at 68° C. for 120 s, with final ex-tension for 7 minutes at 68° C. after completion of all cycles. PCR primers for FGF2 were as follows: FGF2 sense strand 5′-[…]-3′ (SEQ ID NO:1), antisense strand 5′ […]-3′ (SEQ ID NO:2); the length of the PCR product was 734 bp. Primers for GAPDH included the sense strand 5′-[…]-3′ (SEQ ID NO:3), and antisense strand 5′-[…]-3′ (SEQ ID NO:4); the length of the PCR product was 218 bp. […] The target bands of the gel were quantified using Lablmage software (Kapelan), and the value for [FGF2/GAPDH]X10 calculated for each time point.

[2] = tested on: chick chorioallantoic membrane (CAM) blood vessel branching; assay: Chorioallantoic membrane (CAM) model of angiogenesis; type: in vivo
Experimental: In vivo neovascularization was examined by methods described previously. 9-12 Ten-day-old chick embryos were purchased from SPAFAS (Preston, Conn.) and incubated at 37° C. with 55% relative humidity. A hypodermic needle was used to make a small hole in the shell concealing the air sac, and a second hole was made on the broad side of the egg, directly over an avascular portion of the embryonic membrane that was identified by candling. A false air sac was created beneath the second hole by the application of negative pressure at the first hole, causing the CAM to separate from the shell. A window approximately 1.0 cm^2 was cut in the shell over the dropped CAM with a small-crafts grinding wheel (Dremel, division of Emerson Electric Co.), allowing direct access to the underlying CAM. […] Sterile disks of No. 1 filter paper (Whatman International) were pretreated with 3 mg/mL cortisone acetate and 1 mmol/L PTU and air dried under sterile conditions. Thyroid hormone, hormone analogs, FGF2 or control solvents, and inhibitors were then applied to the disks and the disks allowed to dry. The disks were then suspended in PBS and placed on growing CAMs. […] At 24 hours, the MAPK cascade inhibitor PD 98059 was also added to CAMs topically by means of the filter disks.
After incubation at 37° C. with 55% relative humidity for 3 days, the CAM tissue directly beneath each filter disk was resected from control and treated CAM samples. Tissues were washed 3× with PBS, placed in 35-mm Petri dishes (Nalge Nunc), and examined under an SV6 stereomicroscope (Zeiss) at X50 magnification. Digital images of CAM sections exposed to filters were collected using a 3-charge-coupled device color video camera system (Toshiba) and analyzed with Image-Pro software (Media Cybernetics). The number of vessel branch points contained in a circular region equal to the area of each filter disk were counted. One image was counted in each CAM preparation, and findings from 8 to 10 CAM preparations were analyzed for each treatment condition (thyroid hormone or analogs, FGF2, FGF2 antibody, PD 98059). In addition, each experiment was performed 3 times. The resulting angiogenesis index is the mean±SEM of new branch points.

[3] = estimated; cited from earlier work
SF763 glioblastoma cells = details: 85 μM, 16 hours at 37° C., cited from earlier work
ECV304 endothelial cells = assay: FGF2 release from ECV304 endothelial cells (ELISA); type: cell-based
Experimental: ECV304 endothelial cells were cultured in M199 medium supplemented with 10% fetal bovine serum. […] After 72 hours, the supernatants were harvested and assays for FGF performed without dilution using a commercial ELISA system (R&D Systems) (See Davis et al., Circ Res 94:1500-1506 (2004)).

glioblastoma (GBM) = details: mild hypothyroidism induced by PTU; cited from earlier work
[4] = tested on: Morris 7800 hepatoma neoplasms; details: PTU 0.1%; cited from earlier work
[5] = tested on: transplantable liver tumor; details: cited from earlier work
M21 cells = details: 20 ug/ml; 0, 5, and 10 Gy; cited from earlier work

CO[C@@H]1[C@H](N(C)C(=O)c2ccccc2)C[C@H]2O[C@]1(C)n1c3ccccc3c3c4c(c5c6ccccc6n2c5c31)C(=O)NC4 [CGP41251]
effect on T4-induced ERK1/2 (MAPK) activation (ERK1/2): blocked the effect of the hormone on MAPK activation

NC(=O)c1cccc(N)c1 [Compound 3AB, 3-aminobenzamide]
Dq value (V-79 cells): 1 Gy | inhibition of PLDR [1]: ~70%

N[C@@H](Cc1cc(I)c(Oc2cc(I)c(O)c(I)c2)c(I)c1)C(=O)O [Compound T4, L-thyroxine]
FGF2 cDNA abundance corrected for GAPDH (FGF2 cDNA): increase in abundance of FGF2 cDNA | time of maximal level of nuclear phosphorylated ERK1/2 (ERK1/2; T4 10^−7 mol/L): 30 min | time to appearance of phosphorylated ERK1/2 in cell nuclei (ERK1/2; T4 10^−7 mol/L): ≤ 15 min | generation of new blood vessels from existing vessels promoted ([2]; 10^−7-10^−9M): two-to three-fold | combined effect of sub-maximal hormone and growth factor ([2]; T4 0.05 μmol/L + FGF2 0.5 μg/mL): additive | stimulation of angiogenesis ([2]; T4, anti-FGF2 experiments (FIG. 5A)): 1.5 fold | pKa, COOH (carboxylic acid) group [3]: ~2.0 | pKa, NH2 (amino) group [3]: approximately 9.0

CC(C)[C@H]1C(=O)N[C@@H](CCCN=C(N)N)C(=O)NCC(=O)N[C@@H](CC(=O)O)C(=O)N[C@H](Cc2ccccc2)C(=O)N1C [EMD121974]
increase of α (SF763 glioblastoma cells): 4.4 fold | α component in the LQ survival equation (SF763 glioblastoma cells; from approximately 0.04): 0.18 Gy^−1

COc1cccc(-c2cc(=O)c3ccccc3o2)c1N [PD 98059]
effect on T4-induced ERK1/2 (MAPK) activation (ERK1/2): inhibited | FGF2 (pg/mL/10^6 cells) (ECV304 endothelial cells; T3 + PD 98059 (2 μmol/L)): 28.4 ± 3.2 pg/mL/10^6 cells | FGF2 (pg/mL/10^6 cells) (ECV304 endothelial cells; T3 + PD 98059 (20 μmol/L)): 21.7 ± 3.5 pg/mL/10^6 cells | FGF2 (pg/mL/10^6 cells) (ECV304 endothelial cells; T4 + PD 98059 (2 μmol/L)): 26.5 ± 4.5 pg/mL/10^6 cells | FGF2 (pg/mL/10^6 cells) (ECV304 endothelial cells; T4 + PD 98059 (20 μmol/L)): 23.2 ± 4.8 pg/mL/10^6 cells | effect on T3 + T4 stimulated blood vessel branching ([2]; 3 μmol/L PD 98059): completely blocked | effect on FGF2 stimulation of branch formation ([2]; PD 98059 with FGF2 1 μg/mL): effectively blocked

CCCc1cc(=O)[nH]c(=S)[nH]1 [PTU, 6-N-propyl-2-thiouracil]
improvement of duration of survival (glioblastoma (GBM)): 3 fold | increase in survival [4]: approximately 1.3 fold | time needed to grow from approximately 270 mm^3 to 900 mm^3 ([5]; 10 Gy of x-rays plus 0.05% PTU, control 6.2, x-rays alone 11.2): 17.8 days | tumor growth rate versus control ([5]; PTU alone): no difference in growth rate

CNTO 95: human anti-αv integrin monoclonal antibody
increase in sensitivity (in vitro apoptosis) (M21 cells): 2 fold

Source: patent US9839614B2, “Nanoparticle and polymer formulations for thyroid hormone analogs, antagonists, and formulations and uses thereof” (NANOPHARMACEUTICALS LLC, priority 2009, dated 2017)
